This note sets out measurements from PubChem BioAssay (NCI).

Test systems include EKVX NSCLC; HCT-116 colon; HOP-92 NSCLC; HT29 colon; MCF7 breast; MDA-MB-435; MOLT-4 leukemia; NCI-H522 lung; NCI/ADR-RES ovarian; OVCAR-5 ovarian; PC-3 prostate; SF-295 CNS; SN12C renal; SNB-19 CNS; SW-620 colon; U251 CNS; UO-31 renal; MDA-MB-231 breast.
Common to all, as to test: NCI-60 cell line screen, 48 h

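Exposure lasted 48 hours, with cells grown in 96-well plates and compounds tested at five concentrations. The concentration for full growth arrest is given as TGI.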

For the molecule `CN(C)c1ccc(C=Nc2ccc(-c3nc4ccccc4s3)cc2)cc1`, the TGI is greater than 100 µM in the assay with EKVX NSCLC; greater than 100 µM in the assay with HCT-116 colon; 59.4 µM in the assay with HOP-92 NSCLC; greater than 100 µM in the assay on HT29 colon; 76.5 µM in the assay on MCF7 breast; greater than 100 µM in the assay on MDA-MB-435. In addition, the TGI in the assay on MOLT-4 leukemia is greater than 100 µM; in the assay with NCI-H522 lung it was 51.2 µM; with NCI/ADR-RES ovarian, 92 µM; in the assay on OVCAR-5 ovarian, greater than 100 µM; in the assay with PC-3 prostate, 71.5 µM; with SF-295 CNS, 29.9 µM. For the same molecule, the TGI with SN12C renal, in the assay with SNB-19 CNS, in the assay with SW-620 colon, in the assay with U251 CNS and in the assay on UO-31 renal was greater than 100 µM each time.

On to `O=C(Sc1c(-c2ccccc2)c(=O)n(-c2ccccc2)c(=S)n1-c1ccccc1)c1ccccc1`, for which the TGI was greater than 100 µM with EKVX NSCLC; greater than 100 µM with HCT-116 colon; 71.9 µM with HOP-92 NSCLC; greater than 100 µM in the assay on HT29 colon; greater than 100 µM in the assay with MCF7 breast; greater than 100 µM in the assay with MDA-MB-435. For the same molecule, the TGI was 73.3 µM in the assay on MOLT-4 leukemia; greater than 100 µM in the assay with NCI-H522 lung; greater than 100 µM with NCI/ADR-RES ovarian; greater than 100 µM in the assay with OVCAR-5 ovarian; greater than 100 µM in the assay with PC-3 prostate; greater than 100 µM with SF-295 CNS. In addition, the TGI in the assay on SN12C renal, with SNB-19 CNS, in the assay with SW-620 colon, in the assay on U251 CNS and in the assay on UO-31 renal was greater than 100 µM each time.

For `COc1cc(S(=O)(=O)Nc2ccc(-c3csc(N4C(=O)C(C)SC4c4cccs4)n3)cc2)ccc1Cl` (stereo not given), the TGI with EKVX NSCLC, in the assay with HCT-116 colon, in the assay with HOP-92 NSCLC, in the assay with HT29 colon, in the assay with MCF7 breast and with MDA-MB-435 was greater than 100 µM throughout. In addition, the TGI in the assay on MOLT-4 leukemia is greater than 100 µM; in the assay with NCI-H522 lung, 56.6 µM; with NCI/ADR-RES ovarian, greater than 100 µM; in the assay with OVCAR-5 ovarian, greater than 100 µM; in the assay with PC-3 prostate, greater than 100 µM; in the assay with SF-295 CNS, greater than 100 µM. In addition, the TGI in the assay on SN12C renal, in the assay on SW-620 colon and in the assay on UO-31 renal was greater than 100 µM in each case.

With `COC(=O)C1(C(=O)OC)N=C(C)OC1c1ccccc1O` (stereo not given), the TGI in the assay on EKVX NSCLC, with HCT-116 colon, in the assay on HOP-92 NSCLC, in the assay on MCF7 breast, in the assay with MDA-MB-435 and with MOLT-4 leukemia was greater than 100 µM in each case. The TGI with NCI/ADR-RES ovarian, in the assay with OVCAR-5 ovarian, with PC-3 prostate, in the assay on SF-295 CNS, in the assay with SN12C renal and with SNB-19 CNS was greater than 100 µM in each case. Further, the TGI in the assay with SW-620 colon, in the assay on U251 CNS and in the assay with UO-31 renal was greater than 100 µM throughout.

Regarding `C=C1CC[C@@H]2C13[C@@H]1[C@H](CC(=O)[C@@]23C)C1(C)C` (stereo not given in full), the TGI in the assay with HCT-116 colon, with HOP-92 NSCLC, in the assay with HT29 colon, with MCF7 breast, in the assay on MDA-MB-435 and in the assay on MOLT-4 leukemia was greater than 100 µM in each case. For the same molecule, the TGI in the assay with NCI-H522 lung, in the assay on NCI/ADR-RES ovarian, in the assay with OVCAR-5 ovarian, in the assay with PC-3 prostate, in the assay with SF-295 CNS and in the assay with SN12C renal was greater than 100 µM in each case. For the same molecule, the TGI in the assay on SW-620 colon, with U251 CNS and with UO-31 renal was greater than 100 µM throughout.

`Cc1cc(C)c(NS(=O)c2cccc(C(F)(F)F)c2)c(C)c1` (stereo not given): the TGI in the assay on HOP-92 NSCLC, with HT29 colon, in the assay with MCF7 breast, in the assay with MDA-MB-435, in the assay on MOLT-4 leukemia and in the assay with NCI/ADR-RES ovarian was greater than 100 µM throughout. Besides, the TGI with OVCAR-5 ovarian, with PC-3 prostate, in the assay with SF-295 CNS, with SN12C renal, in the assay on SNB-19 CNS and in the assay with SW-620 colon was greater than 100 µM throughout. In addition, the TGI in the assay with U251 CNS and with UO-31 renal was greater than 100 µM throughout.

As for `COC(=O)[C@@H]1CN(C(=O)CCc2ccccc2)C(=O)N1`, the TGI with EKVX NSCLC, in the assay on HCT-116 colon, in the assay with HOP-92 NSCLC, in the assay on HT29 colon, with MDA-MB-231 breast and in the assay with MDA-MB-435 was greater than 100 µM each time. The TGI in the assay with MOLT-4 leukemia, in the assay with NCI-H522 lung, with NCI/ADR-RES ovarian, in the assay with OVCAR-5 ovarian, with PC-3 prostate and with SF-295 CNS was greater than 100 µM throughout. Also, the TGI in the assay with SN12C renal, with SNB-19 CNS, in the assay on SW-620 colon, with U251 CNS and in the assay on UO-31 renal was greater than 100 µM each time.
